Test results taken from patent publication US9938235B2, “Compounds with neural protective effect, and preparation and use thereof” (GUANGZHOU MAGPIE PHARMACEUTICAL CO., LTD., priority 2014, dated 2018).

How the values were obtained:
[1] = system: MPTP-induced abnormal behavior of mice of Parkinson's disease (PD) model; test: Behavioral test in MPTP-induced mice of Parkinson's disease (PD) model; format: in vivo, C57BL/6J mice; settings: MT-019 25, 75, 225 mg/kg once a day for seven days; behavioral test on day 7 of administration
Description: (§1) Forty of C57BL/6J mice (male, 6 to 7 week-old) were feed for 7 days to adapt to the environment. On the day 8, animal model was started to prepare. 20 mg/kg MPTP was given via intraperitoneal injection for the model group and drug group, the injection was made every 2 hours, for four times in total, and an acute PD model was established. The equivalent amount of saline was given to the normal control group. From the day 2 of model establishment, the compound MT-019 and the positive control drug Rasagiline (1 mg/kg) were given. The doses of MT-019 were 25, 75, 225 mg/kg, respectively. The drug was given once a day, and a equal amount of saline was given to the normal control group and the MPTP model group, for seven days consecutively. On the day 7 of drug administration, behavioral test is performed.

TH neurons in SNpc area = test: TH neuron immunohistochemistry, SNpc area, MPTP-induced PD mice; format: in vivo, C57BL/6J mice
Description: as §1
After the above-mentioned animal model was set up and drug was given to the mice as described in Example 86, materials was taken at 12 hours after the last drug administration in the steps shown below: (1) With 10% chloral hydrate anesthesia in mice, the mice were fixed on an operating table, the chest thereof was quickly open; (2) […], […] the left ventricle, the right auricle was cut open, and a blood buffer was delivered to the heart from an infusion bottle with a volume of about 50 mL per mouse; (3) after the lavage fluid became colorless, the blood buffer was replaced with 4% paraformaldehyde solution in perfusion until the tail and limbs of the mice became stiff, wherein the infusion volume was about 100 mL per mouse; (4) the brain was taken by making the mice beheaded on a flat glass board, and redundant parts were carefully removed. The midbrain was placed and fixed in a centrifuge tube containing freshly prepared 4% paraformaldehydea. The samples were cut into paraffin sections through the process of dehydrating, transparent, paraffining and embedding steps. Each of the samples was cut with paraffin slicing machine into four microns slices. After fully unfold in water bath, the slices were put on glass plates and numbered. […]

Structure (SMILES): C#CCNC(C)c1ccc(/C=[N+](\[O-])C(C)(C)C)c(OC(=O)N(C)CC)c1 (stereo not shown) [MT-019]
- recovery effect to MPTP-induced abnormal behavior [1]: had recory effect
- protective effect to dopaminergic neurons compared with positive control Rasagiline (TH neurons in SNpc area; 25 mg/kg MT-019 versus Rasagiline 1 mg/kg): equivalent to that of the positive control drug Rasagiline 1 mg/kg
- protective effect on SNpc area TH neurons (positive cell count in substantia nigra) (TH neurons in SNpc area; MT-019 25, 75, 225 mg/kg once a day for seven days, material taken 12 hours after last administration): had protective effect
- dose dependence of protective effect on TH neurons (TH neurons in SNpc area; doses 25, 75, 225 mg/kg): stronger effect was indicated with higher doses
